In patent US6172110A, “Acylated betulin and dihydrobetulin derivatives, preparation thereof and use thereof” (The University of North Carolina at Chapel Hill, priority 1999, dated 2001):
“Also recorded” adds a separate entry of the source. Like-named read-outs stand apart in the source and are kept apart here.

How the values were obtained:
[1] = tested on: HIV-1 (IIIB isolate); assay: HIV-1 inhibition (p24 antigen ELISA) in infected H9 lymphocytes; type: cell-based; conditions: for Therapeutic Index (TI = IC50/EC50): H9 cells, average of at least two experiments; for anti-HIV activity, result in words / TI, result in words: H-9 lymphocytes; for anti-HIV activity, result in words: EC50 compared with related compounds; for EC50: Human immunodeficiency virus 1, IIIB, Lymphocyte, 96 h, read-out: Anti-HIV Activity EC50; for TI, result in words: compared with related compounds
Experimental: (§1) Aliquot of this cell line were only used in experiments when in log-phase growth. Test samples were first dissolved in dimethyl sulfoxide. The following final drug concentrations were routinely used for screening: 100, 20, 4 and 0.8 μg/ml. For active agents, additional dilutions were prepared for subsequent testing so that an accurate EC50 value (defined below) could be achieved. […] The appropriate amount of virus for a multiplicity of infection (moi) between 0.1 and 0.01 Infectious Units/cell was added to the first aliquot of H9 cells. The other aliquot only received culture medium, and these mock-infected cells were used for toxicity determinations (IC50, defined below). After a 4 h incubation at 37° C. and 5% CO2, both cell populations were washed three times with fresh medium and then added to the appropriate wells of a 24 well-plate containing the various concentrations of the test drug or culture medium (positive infected control/negative drug control). In addition, AZT was also assayed during each experiment as a positive drug control. The plates were incubated at 37° C. and 5% CO2 for 4 days. Cell-free supernatants were collected on Day 4 for use in a p24 antigen ELISA assay. P24 antigen is a core protein of HIV and therefore is an indirect measure of virus present in the supernatants. Toxicity was determined by performing cell counts by a Coulter Counter on the mock-infected H9 cells which had either received culture medium (no toxicity), test sample, or AZT.
Compounds of the present invention were assayed for anti-HIV activity according to the following assay procedures. […] The cell lines were used in experiments only when in the logarithmic phase of growth, whereas uninfected peripheral blood mononuclear cells (PBMCs) were first stimulated with PHA (1 μg/mL) for three days. […] The cell lines and PBMCs were washed thoroughly to remove unadsorbed virions and resuspended at 4×10^5 cells/ml in complete medium or complete medium with 10% v/v interleukin 2 (IL-2) , respectively. One ml. aliquots were placed into wells of 24-well culture plates containing an equal volume of test compounds (diluted in the appropriate culture medium). The toxicity of each compound was assessed by determining the number of compound-exposed uninfected cells that remained after four days at 37° C. and 5% CO2. A p24 antigen ELISA assay was used to determine the level of virus released in the medium of the HIV-infected cultures. The p24 antigen assay used a HIV-1 anti-p24 specific monoclonal antibody as the capture antibody coated onto 96-well plates. […] P24 in the culture medium was quantitated against a standard curve containing known amounts of p24. The effective (EC50) and inhibitory (IC50) concentrations for anti-HIV activity and cytotoxicity, respectively, were determined.

[2] = Cytotoxicity: cell counts of mock-infected H9 cells; type: cell-based; conditions: human
Experimental: as §1, with “The biological evaluation of HIV-1 inhibition was carried out according to established protocols, (Kashiwada, Y., et al., J Med Chem. 39:1016-1017 (1996); Hashimoto, F., et al., Bioorg. & Med Chem. 5:2133-2143 (1997)). The T cell line, H9, was maintained in continuous culture with complete medium (RPMI 1640 with 10% fetal calf serum supplemented with L-glutamine at 5% CO2 and 37° C.). Aliquot” for “Aliquot”, “achieved. As the test samples were being prepared, an aliquot of the H9 cell line was infected with HIV-1 (IIIB isolate) while another aliquot was mock-infected with complete medium.” for “achieved.”
Compounds of the present invention were assayed for anti-HIV activity according to the following assay procedures. The T cell line, H9, and the promonocytic cell line, U937, were maintained separately in continuous culture with complete medium (RPMI 1640 with 10% fetal calf serum) at 5% CO2 and 37° C. The cell lines were used in experiments only when in the logarithmic phase of growth, whereas uninfected peripheral blood mononuclear cells (PBMCs) were first stimulated with PHA (1 μg/mL) for three days. All cell targets were incubated with HIV-1 (IIIB isolate, TCID50 10^4 IU/ml, at a multiplicity of infection of […] IU/cell) for one hour at 37° C. and 5% CO2. The cell lines and PBMCs were washed thoroughly to remove unadsorbed virions and resuspended at 4×10^5 cells/ml in complete medium or complete medium with 10% v/v interleukin 2 (IL-2) , respectively. One ml. aliquots were placed into wells of 24-well culture plates containing an equal volume of test compounds (diluted in the appropriate culture medium). The toxicity of each compound was assessed by determining the number of compound-exposed uninfected cells that remained after four days at 37° C. and 5% CO2. A p24 antigen ELISA assay was used to determine the level of virus released in the medium of the HIV-infected cultures. The p24 antigen assay used a HIV-1 anti-p24 specific monoclonal antibody as the capture antibody coated onto 96-well plates. Following a sample incubation period, rabbit serum containing antibodies for HIV-1 p24 was used to tag any p24 captured onto the microtiterwell surface. Peroxidase conjugated goat anti-rabbit serum was then used to tag HIV-1 p24 specific rabbit antibodies that had complexed with captured p24. […] The cutoff for the p24 ELISA assay was 12.5 pg/ml. P24 in the culture medium was quantitated against a standard curve containing known amounts of p24. […]

[3] = toxic to 50% of mock-infected H9 cells, 4 days, average of at least two experiments, read-out: Cytotoxicity IC50

| SMILES | Therapeutic Index (TI = IC50/EC50) [1] | anti-HIV activity, result in words [1] | EC50 [1] [µM] | CC50 at 96 h ([2]; h9 cells) [µM] | TI, result in words [1] | fold more potent than compound 2 ([1]; compared with compound 2) | CC50 at 96 h [2, 3] [µM] | fold more potent than compound 3 ([1]; compared with compound 3 (betulin)) [fold] | fold drop in TI on saturation of C20-C29 double bond ([1]; compared with compound 4) [fold] | fold drop in activity on saturation of C20-C29 double bond ([1]; compared with compound 4) [fold] |
| --- | --- | --- | --- | --- | --- | --- | --- | --- | --- | --- |
| C=C(C)[C@@H]1CC[C@]2(COC(=O)CC(C)(C)CC(=O)O)CC[C@]3(C)[C@H](CC[C@@H]4[C@@]5(C)CCC(=O)C(C)(C)[C@@H]5CC[C@]43C)[C@@H]12 [Compound 12, 3-Deoxy-3-oxo-28-O-(3',3'-dimethylglutaryl)-betulin] | 2.9 | decreased activity further | 10 | 29.2 | – | – | – | – | – | – |
| C=C(C)[C@@H]1CC[C@]2(COC(=O)CC3(CC(=O)O)CCCC3)CC[C@]3(C)[C@H](CC[C@@H]4[C@@]5(C)CC[C@H](OC(=O)CC6(CC(=O)O)CCCC6)C(C)(C)[C@@H]5CC[C@]43C)[C@@H]12 [Compound 6, 3,28-Di-O-(3',3'-tetramethyleneglutaryl)-betulin] | 267 | in the nanomolar range; also recorded: less active compared with compound 4; also recorded: least activity | 0.077 | 20.5 | lowest TI values | – | – | – | – | – |
| CCC(C)(CC(=O)O)CC(=O)OC[C@]12CC[C@@H](C(C)C)[C@@H]1[C@H]1CC[C@@H]3[C@@]4(C)CC[C@H](OC(=O)CC(C)(CC)CC(=O)O)C(C)(C)[C@@H]4CC[C@@]3(C)[C@]1(C)CC2 (stereo partly shown) [Compound 9, 3,28-Di-O-(3',3'-methylethylglutaryl)-dihydrobetulin] | 248 | less inhibition than the unsaturated 5 and 6 | 0.075 | 18.7 | – | – | – | – | – | – |
| C=C(C)[C@@H]1CC[C@]2(COC(=O)CC(C)(C)CC(=O)O)CC[C@]3(C)[C@H](CC[C@@H]4[C@@]5(C)CC[C@H](OC(=O)CC(C)(C)CC(=O)O)C(C)(C)[C@@H]5CC[C@]43C)[C@@H]12 [Compound 4, 3,28-Di-O-(3',3'-dimethylglutaryl)-betulin] | 21,515 | significantly enhanced activity; also recorded: remarkable anti-HIV activity even greater than that of the betulinic acid derivative 2 | 0.00066 | 14.2 | remarkably high therapeutic index (TI); also recorded: higher TI than compound 2 | about 3 fold | – | – | – | – |
| Cc1cn([C@H]2C[C@H](N=[N+]=[N-])[C@@H](CO)O2)c(=O)[nH]c1=O [AZT, reference compound] | – | – | – | – | – | – | 500 | – | – | – |
| C=C(C)[C@@H]1CC[C@]2(CO)CC[C@]3(C)[C@H](CC[C@@H]4[C@@]5(C)CC[C@H](O)C(C)(C)[C@@H]5CC[C@]43C)[C@@H]12 [Compound 3, betulin] | 1.9 | less potent than betulinic acid (1) | 23 | – | – | – | 43.7 | – | – | – |
| C=C(C)[C@@H]1CC[C@]2(COC(=O)CC(C)(C)CC(=O)O)CC[C@]3(C)[C@H](CC[C@@H]4[C@@]5(C)CC=CC(C)(C)[C@@H]5CC[C@]43C)[C@@H]12 [Compound 14] | 5.2 | increased anti-HIV activity | 5.4 | 28.3 | – | – | – | – | – | – |
| CC(C)[C@@H]1CC[C@]2(COC(=O)CC3(CC(=O)O)CCCC3)CC[C@]3(C)[C@H](CC[C@@H]4[C@@]5(C)CC[C@H](OC(=O)CC6(CC(=O)O)CCCC6)C(C)(C)[C@@H]5CC[C@]43C)[C@@H]12 [Compound 10, 3,28-Di-O-(3',3'-tetramethyleneglutaryl)-dihydrobetulin] | 37 | less inhibition than the unsaturated 5 and 6; also recorded: least activity | 0.58 | 21.6 | lowest TI values | – | – | – | – | – |
| C=C(C)[C@@H]1CC[C@]2(COC(=O)CC(C)(CC)CC(=O)O)CC[C@]3(C)[C@H](CC[C@@H]4[C@@]5(C)CC[C@H](OC(=O)CC(C)(CC)CC(=O)O)C(C)(C)[C@@H]5CC[C@]43C)[C@@H]12 (stereo partly shown) [Compound 5, 3,28-Di-O-(3',3'-methylethylglutaryl)-betulin] | 3,476 | in the nanomolar range; also recorded: less active compared with compound 4 | 0.0053 | 18.4 | – | – | – | – | – | – |
| C=C(C)[C@@H]1CC[C@]2(C(=O)O)CC[C@]3(C)[C@H](CC[C@@H]4[C@@]5(C)CC[C@H](OC(=O)CC(C)(C)CC(=O)O)C(C)(C)[C@@H]5CC[C@]43C)[C@@H]12 [Compound 2, reference compound] | – | – | 0.0023 | 4.5 | – | – | – | – | – | – |
| C=C(C)[C@@H]1CC[C@]2(COC(=O)CC(C)(C)CC(=O)O)CC[C@]3(C)[C@H](CC[C@@H]4[C@@]5(C)CC[C@H](O)C(C)(C)[C@@H]5CC[C@]43C)[C@@H]12 [Compound 11, 28-O-(3',3'-Dimethylglutaryl)-betulin] | 7.8 | much less potent than 4 | 3.6 | 28.2 | – | – | – | 6 | – | – |
| CC(C)[C@@H]1CC[C@]2(COC(=O)CC(C)(C)CC(=O)O)CC[C@]3(C)[C@H](CC[C@@H]4[C@@]5(C)CC[C@H](OC(=O)CC(C)(C)CC(=O)O)C(C)(C)[C@@H]5CC[C@]43C)[C@@H]12 [Compound 8, 3,28-Di-O-(3',3'-dimethyglutaryl)-dihydrobetulin] | 2,253 | – | 0.0047 | 10.6 | – | – | – | – | ~9 | ~7 |
